Experiments:
Assay in all cases: relative viability (nuclei count vs DMSO), 5 days (fraction); higher = more cells survive
Trametinib + OSI-027 = compound: CC(=O)Nc1cccc(-n2c(=O)n(C3CC3)c(=O)c3c(Nc4ccc(I)cc4F)n(C)c(=O)c(C)c32)c1 [Trametinib] + COc1cccc2cc(-c3nc([C@H]4CC[C@H](C(=O)O)CC4)n4ncnc(N)c34)[nH]c12 [OSI-027] (partner 0.5 µM)
How it was run: (§1)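 Relative viability divides the nuclei count in treated wells by that in vehicle wells. Lung cancer cell lines were seeded in 1536-well plates, dosed by pin tool the next day, and fixed and stained after 5 days in one step with final 0.05% Triton X-100, 1% formaldehyde and 1 ug/ml Hoechst. Dosing was a single drug or a fixed anchor-drug dose plus five library-drug doses (not always all listed) in √10 steps, and values are medians of duplicate plates imaged at 4×.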

Trametinib + Crizotinib = compound: CC(=O)Nc1cccc(-n2c(=O)n(C3CC3)c(=O)c3c(Nc4ccc(I)cc4F)n(C)c(=O)c(C)c32)c1 [Trametinib] + C[C@@H](Oc1cc(-c2cnn(C3CCNCC3)c2)cnc1N)c1c(Cl)ccc(F)c1Cl [Crizotinib] (partner 1 µM)
How it was run: as §1

[1] = compound: CN1C=C(C2=CC=CC=C21)/C=C\3/C4=C(C=CC=N4)NC3=O + Cc1nc(Nc2ncc(C(=O)Nc3c(C)cccc3Cl)s2)cc(N2CCN(CCO)CC2)n1 [Dasatinib] (partner 0.075 µM)
How it was run: as §1

[2] = compound: CN1C=C(C2=CC=CC=C21)/C=C\3/C4=C(C=CC=N4)NC3=O + N=C(N)NC(=N)NCCc1ccccc1 [Phenformin] (partner 250 µM)
How it was run: as §1

Row | Cell Line | relative viability (Trametinib + OSI-027; first compound 0.0025 µM) | relative viability (Trametinib + OSI-027; first compound 0.007906 µM) | relative viability (Trametinib + OSI-027; first compound 0.025 µM) | relative viability (Trametinib + OSI-027; first compound 0.07906 µM) | relative viability (Trametinib + OSI-027; first compound 0.25 µM) | relative viability (Trametinib + Crizotinib; first compound 0.0025 µM) | relative viability (Trametinib + Crizotinib; first compound 0.007906 µM) | relative viability (Trametinib + Crizotinib; first compound 0.025 µM) | relative viability (Trametinib + Crizotinib; first compound 0.07906 µM) | relative viability (Trametinib + Crizotinib; first compound 0.25 µM) | relative viability ([1]; first compound 0.02 µM) | relative viability ([1]; first compound 0.06325 µM) | relative viability ([1]; first compound 0.2 µM) | relative viability ([1]; first compound 0.6325 µM) | relative viability ([1]; first compound 2 µM) | relative viability ([2]; first compound 0.02 µM) | relative viability ([2]; first compound 0.06325 µM) | relative viability ([2]; first compound 0.2 µM) | relative viability ([2]; first compound 0.6325 µM) | relative viability ([2]; first compound 2 µM)
1 | NCI-H1563 | 0.745 | 0.819 | 0.772 | 0.884 | 0.623 | 0.944 | 0.747 | 0.817 | 0.785 | 0.623 | 0.472 | 0.437 | 0.444 | 0.488 | 0.414 | 0.627 | 0.64 | 0.635 | 0.672 | 0.684
2 | NCI-H2087 | 0.323 | 0.275 | 0.139 | 0.137 | 0.101 | 0.888 | 0.667 | 0.495 | 0.33 | 0.289 | 0.868 | 0.843 | 0.838 | 0.824 | 0.877 | 0.488 | 0.431 | 0.387 | 0.453 | 0.369
3 | NCI-H322M | 0.504 | 0.483 | 0.467 | 0.41 | 0.383 | 0.943 | 0.986 | 0.686 | 0.697 | 1.04 | 0.239 | 0.254 | 0.236 | 0.248 | 0.264 | 0.689 | 0.769 | 0.642 | 0.838 | 0.777
4 | NCI-H1734 | 0.591 | 0.517 | 0.404 | 0.492 | 0.278 | 0.644 | 0.622 | – | 0.493 | 0.285 | 0.453 | 0.408 | – | 0.455 | 0.517 | 0.412 | 0.354 | – | 0.376 | 0.373
5 | NCI-H2228 | 0.498 | 0.427 | 0.222 | 0.237 | 0.192 | 0.33 | 0.398 | 0.438 | 0.254 | 0.247 | 0.524 | 0.458 | – | – | 0.485 | 0.213 | 0.273 | – | – | 0.304
6 | EKVX | 0.667 | 0.532 | 0.379 | 0.473 | 0.426 | 0.779 | 0.778 | 0.765 | 0.564 | 0.4 | 0.411 | 0.427 | 0.464 | 0.449 | 0.358 | 0.206 | 0.227 | 0.226 | 0.201 | 0.236
7 | NCI-H596 | 0.531 | 0.62 | 0.407 | 0.487 | 0.249 | 0.8 | 0.824 | 0.757 | 0.721 | 0.597 | 0.481 | 0.582 | 0.469 | 0.628 | 0.48 | 0.858 | 0.67 | 0.619 | 0.698 | 0.709
8 | NCI-H1975 | 0.643 | 0.422 | 0.402 | 0.299 | 0.196 | 0.965 | 0.937 | 0.757 | 0.499 | 0.381 | 0.382 | 0.38 | 0.333 | 0.279 | 0.239 | 0.392 | 0.378 | 0.318 | 0.389 | 0.402
9 | NCI-H2170 | 0.754 | 0.659 | 0.392 | 0.613 | 0.616 | 1.16 | 1.07 | – | 1.1 | 1.04 | 0.442 | 0.581 | 0.525 | 0.468 | 0.597 | 0.354 | 0.366 | 0.327 | 0.405 | 0.4
10 | NCI-H1666 | 0.765 | 0.811 | 0.632 | 0.675 | 0.552 | 0.74 | 0.766 | 0.72 | 0.586 | 0.394 | 0.892 | 0.822 | 0.79 | 0.758 | 0.81 | 0.57 | 0.527 | 0.481 | 0.577 | 0.494
11 | PC-3 [JPC-3] | 0.803 | 0.635 | 0.675 | 0.595 | 0.581 | 1.02 | 0.968 | 0.919 | 0.737 | 0.601 | 1.04 | 0.888 | 1.02 | 0.866 | 1.02 | 0.472 | 0.44 | 0.434 | 0.425 | 0.497
12 | NCI-H1755 | 0.668 | 0.673 | 0.559 | 0.707 | 0.664 | 0.807 | 0.789 | 0.706 | 0.772 | 0.691 | 0.365 | 0.411 | 0.37 | 0.402 | 0.351 | 0.532 | 0.537 | 0.523 | 0.263 | 0.571
13 | RERF-LC-KJ | 0.493 | 0.471 | 0.414 | 0.459 | 0.372 | 0.794 | 0.819 | 0.778 | 0.664 | 0.763 | 0.898 | 0.878 | 0.737 | 0.68 | 0.679 | 0.434 | 0.415 | 0.444 | 0.474 | 0.482
14 | NCI-H647 | 0.674 | 0.696 | 0.533 | 0.368 | 0.175 | 0.961 | 1.04 | 0.746 | 0.671 | 0.572 | 0.208 | 0.176 | 0.105 | 0.143 | 0.167 | 0.387 | 0.387 | 0.343 | 0.479 | 0.528
15 | BEN | 0.317 | 0.274 | 0.27 | 0.294 | 0.325 | 0.794 | 0.825 | – | 0.717 | 0.81 | 0.263 | 0.275 | – | 0.259 | 0.314 | 0.264 | 0.29 | – | 0.255 | 0.242
16 | 201T | 0.707 | 0.642 | 0.633 | 0.443 | 0.505 | 1.05 | 1.01 | 0.859 | 0.872 | 0.799 | 0.587 | 0.533 | 0.504 | 0.531 | 0.413 | 0.434 | 0.451 | 0.429 | 0.394 | 0.422

— the supplement of paper PMC10307832
